Measurements reported in patent US10807960B2, “Compounds, compositions, and methods for controlling biofilms” (KATHOLIEKE UNIVERSITEIT LEUVEN, priority 2015, dated 2020).
pIC50: −log10 of the molar value. Like-named read-outs stand apart in the source and are kept apart here. Marks after values point to notes of the source that are not given here.

Tests used:
[1] = test system: C. albicans SC5314 + S. epidermidis; assay: mixed C. albicans/S. epidermidis biofilm assay, selective plating; format: cell-based, Candida albicans; Staphylococcus epidermidis; details: for CFUs % survival C.a.: C. albicans in mixed biofilm with S. epidermidis; for CFUs % survival C.a. / CFUs % survival S.e.: 37° C.; for CFUs % survival S.e.: S. epidermidis in mixed biofilm with C. albicans
Procedure: The concentrations 25 μM (0.0625% DMSO or ethanol) and 100 μM (0.25% DMSO or ethanol) were tested. After 24 h of incubation at 37° C., biofilms were washed with PBS and fresh medium with or without compounds was added. After further incubation for 48 h at 37° C., the biofilms were washed with PBS after which the cells were re-suspended in 100 μl of PBS by scraping off, sonication (1 min, 45 kHz, USC300-T; VWR, Radnor, Pa., USA) and vigorously pipetting up-and-down. Finally, the biofilm cells were diluted in PBS and plated on YPD agar plates containing 100 mg/L ampicillin and TSA plates containing 25 mg/L amphotericin B, to determine the number of fungal and bacterial CFUs after 2 days of incubation at 37° C., respectively. The percentage of C. albicans SC5314 and S. epidermidis cells was determined relative to the DMSO or ethanol control treatment.

[2] = test system: S. aureus ATCC6538; assay: static peg (Calgary Biofilm Device) anti-biofilm assay, crystal violet and OD600; details: 37° C.
[3] = test system: Caenorhabditis elegans; details: as previously reported; cited from earlier work
[4] = test system: eukaryotic tumor cell lines; details: as previously reported; cited from earlier work
[5] = test system: bone cells; details: as previously reported; cited from earlier work
[6] = read-out: BIC50, biofilm formation

| SMILES | biofilm formation of C. albicans/S. epidermidis (in words) ([1]; 25 μM) | CFUs % survival C.a. ([1]; 25 μM) | CFUs % survival C.a. ([1]; 100 μM) | CFUs % survival S.e. ([1]; 25 μM) | CFUs % survival S.e. ([1]; 100 μM) | pIC50 ([2]; planktonic growth) | pIC50 [2, 6] | toxicity (in words) [3] | toxicity (in words) [4] | toxicity (in words) [5] | activity against S. epidermidis in the C. albicans/S. epidermidis biofilm (in words) ([1]; 100 μM) |
| --- | --- | --- | --- | --- | --- | --- | --- | --- | --- | --- | --- |
| CCCCCCCCn1c(-c2ccc(Cl)cc2)cnc1N [Compound 2] | completely inhibited | <0.6* % | <0.2* % | 0.0* % | 0.0* % | 5.11 | 5.55 | strong toxicity | strong toxicity | strong toxicity |  |
| CC(C)CNc1ncc(-c2ccc(Cl)cc2)[nH]1 [Compound 3] |  | 58.3* % | 235.1% | 64.6* % | 13.2* % | ~4.02 | 4.02 |  |  |  |  |
| Clc1ccc(-c2cnc(NC3CCCC3)[nH]2)cc1 [Compound 5] |  | 167.9% | 594.7% | 72.0% | 2.3* % | 4.21 | 4.46 |  |  |  | complete inhibition |
